In brackets after ≈: the same amount, converted by molar mass. Entries after “also recorded” stand apart in the source; their conditions may differ. Like-named read-outs stand apart in the source and are kept apart here.
How the values were obtained:
[1] = test system: Mycobacterium aurum (ATCC 23366); test: HT-SPOTi anti-mycobacterial assay, M. aurum; type: cell-based; conditions: Mycolicibacterium aurum
[2] = test system: Mycobacterium bovis BCG (ATCC35734); test: microbe, parasite or virus in culture; type: cell-based; conditions: Mycobacterium tuberculosis variant bovis BCG, read-out: MIC90 M. bovis BCG, HT-SPOTi; lowest concentration inhibiting 90% of the bacteria
[3] = test system: murine macrophages RAW 264.7; test: Resazurin cytotoxicity assay on RAW 264.7 macrophages; type: cell-based; conditions: Mus musculus
[4] = test system: adenosine receptors in RAW264.7 cells; test: cAMP accumulation in RAW264.7 macrophages (cAMP ELISA); type: cell-based, murine; conditions: for increase in cAMP compared with forskolin: 1 μM, 10 min incubation, PDE inhibitor pre-treatment, positive control forskolin 1 μM
[5] = test system: Mycobacterium tuberculosis in a persistent state; design: method as in Barrow et al., [2003]; conditions: ref Barrow et al., [2003]; cited from earlier work
[6] = Equilibrium solubility, modified shake-flask method with HPLC quantification; type: physicochemical; conditions: shake-flask 24 h, HPLC 230 nm
Experimental: The equilibrium solubility of ADN‐PEG‐conjugates was determined using a modified version of the shake‐flask method (Plöger et al., [2018]). An excess of the ADN‐PEG‐conjugate was added to either phosphate buffer solution (PBS buffer) or deuterium‐depleted water (DDW) at a pH value of 6.8. The resulting suspension was shaken at 37°C until a (thermodynamic) equilibrium was reached between saturated solution and undissolved solid. Solubility quantification of the samples was achieved using high‐pressure liquid chromatography (HPLC) analysis.
An excess amount of the PEG-ADN conjugates was added into a 20 mL glass vial containing either phosphate buffer solution or DDW. The samples were placed into a shaking water bath at 150 rpm at 37ᵒC for 24h. The supernatant was withdrawn from the suspension using a micro centaur MSB010.CX2.5 centrifuge (MSE Ltd., London, UK) at 1.3 × 10,000 rpm for 1 min.

[7] = test system: Mycobacterium bovis BCG (ATCC35734); conditions: ref Ferguson et al., [2020]; cited from earlier work
[8] = test system: Mycobacterium aurum (ATCC 23366); design: method as in Ferguson et al., [2020]; conditions: ref Ferguson et al., [2020]; cited from earlier work
[9] = ATCC23366, HT-SPOTi, lowest concentration inhibiting 90% of the bacteria, read-out: MIC90 M. aurum
[10] = RAW264.7, 50% inhibition of cell proliferation, resazurin micro dilution method, RAW 264.7 murine macrophages, read-out: GIC50 RAW 264.7
[11] = aqueous buffer, thermodynamic from solid, phosphate buffer solution pH 6.8, 37°C, read-out: Solubility (mean ± SD) PBS
[12] = pH 7, thermodynamic from solid, deuterium-depleted water (DDW), 37°C, read-out: Solubility (mean ± SD) DDW

Compound | MIC90 [1, 9] [µg/mL] | MIC90 [2] [µg/mL] | IC50 [3, 10] [µg/mL] | increase in cAMP compared with forskolin [4] [%] | other results
CC1(C)O[C@@H]2[C@H](O1)[C@@H](CO)O[C@H]2n1cnc2c(N)nc(C#CCOCCOCCOCCOCCOCCOS(C)(=O)=O)nc21 [11c] | 125 (≈ 189 µM) | 250 (≈ 379 µM) | 62.5 (≈ 94.7 µM) |  | 
CC1(C)O[C@@H]2[C@H](O1)[C@@H](COS(N)(=O)=O)O[C@H]2n1cnc2c(N)nc(C#CCOCCOCCOCCOCCOCCOS(C)(=O)=O)nc21 [12c] | 62.5 (≈ 84.6 µM) | 500 (≈ 677 µM) | 31.2 (≈ 42.2 µM) |  | 
Nc1ncnc2c1ncn2[C@@H]1O[C@H](CO)[C@@H](O)[C@H]1O [Adenosine, adenosine, reference compound] |  |  |  | 48 | 
CS(=O)(=O)OCCOCCOCCOCCOCCOCC#Cc1nc(N)c2ncn([C@@H]3O[C@H](CO)[C@@H](O)[C@H]3O)c2n1 [10c] | 250 (≈ 403 µM) | 250 (≈ 403 µM) | 250 (≈ 403 µM) |  | 
Cc1nc(N)c2ncn([C@@H]3O[C@H](CO)[C@@H](O)[C@H]3O)c2n1 [2‐methyl adenosine] |  |  |  |  | growth of Mycobacterium tuberculosis in a persistent state (in words) [5]: inhibited the growth
CC1(C)O[C@@H]2[C@H](O1)[C@@H](CO)O[C@H]2n1cnc2c(N)nc(C#CCOCCOCCOCCOCCOS(C)(=O)=O)nc21 [11b] | 500 (≈ 812 µM) | 500 (≈ 812 µM) | 62.5 (≈ 102 µM) | 46 | solubility at 24 h [6, 11]: 1180 ± 190 µg/mL (≈ 1920 µM); solubility at 24 h [6, 12]: 1160 ± 640 µg/mL (≈ 1880 µM); cAMP accumulation in RAW264.7 cells (in words) [4]: significant increase; also recorded: considerable increase
Nc1nc(I)nc2c1ncn2[C@@H]1O[C@H](CO)[C@@H](O)[C@H]1O [compound 9, 2‐iodoadenosine, reference compound] |  | 15.6 (≈ 39.7 µM) |  |  | bactericidal activity against M. bovis (in words) [7]: exhibited bactericidal activity; MIC90 ([1]; ATCC23366, read-out: MIC90 M. aurum): 125 µg/mL (≈ 318 µM); bactericidal activity against M. aurum (in words) [8]: not; IC50 ([3]; RAW264.7, read-out: GIC50 RAW 264.7): 250 µg/mL (≈ 636 µM)
NNC(=O)c1ccncc1 [Isoniazid, isoniazid, reference compound] | 7.81 (≈ 56.9 µM) | 0.49 (≈ 3.57 µM) | 500 (≈ 3650 µM) |  | 
CS(=O)(=O)OCCOCCOCCOCCOCC#Cc1nc(N)c2ncn([C@@H]3O[C@H](CO)[C@@H](O)[C@H]3O)c2n1 [10b] | 250 (≈ 434 µM) | 250 (≈ 434 µM) | 250 (≈ 434 µM) | 42 | solubility at 24 h [6, 11]: 1220 ± 260 µg/mL (≈ 2120 µM); solubility at 24 h [6, 12]: 1330 ± 320 µg/mL (≈ 2310 µM); cAMP accumulation in RAW264.7 cells (in words) [4]: significant increase; also recorded: considerable increase

— publication PMC10087458 (Chemical Biology & Drug Design, 2022)
